Data on one molecule can be found in patent US12661365B2, “Use of cannabidiol in the treatment of epilepsy” (priority 2020, dated 2026).

The nature of data set [1]: Phase 1 open-label drug-drug interaction trial: effect of repeated-dose CBD on the pharmacokinetics of a single dose of caffeine (plasma caffeine and paraxanthine, LC-MS/MS). The data set is classed as in vivo, human. The conditions noted are these: trough samples Days 23, 25 and 26, 750 mg CBD b.i.d., before coadministration on Day 26. The source says:
The duration of the trial was approximately 10 weeks, which includes a screening period (up to 4 weeks), a treatment period (4 weeks) and a safety follow-up period (2 weeks). After signing the informed consent form (ICF), participants entered the screening period (Day −28 to −1). […] The subjects were resident in the CRU for 2 periods. […] They were discharged on Day 3 after completion of the assessments. On Day 3, the first dose of CBD was taken in the morning in the CRU, and on this day, the escalating doses of CBD were dispensed to subjects to be taken at home from Day 4 to Day 12. After discharge on Day 3, the subjects returned to the CRU for ambulatory visits on Days 12, 18, and 23. At these ambulatory visits, the maintenance doses of CBD were dispensed to subjects to be taken at home from Day 13 to Day 25 (the evening dose of Day 25 was taken in the CRU). The subjects were admitted again to the CRU in the afternoon of Day 25. […] The subjects were discharged on Day 28 after completion of the assessments. […]
Plasma concentration of CBD determined on the following days: 23, 25, and 26. These were determined using liquid chromatography and tandem mass spectrometry. […]

For the next data set, the system named is serum ALT. Briefly: Liver safety in the Phase 1 trial: serum liver chemistries (peak ALT versus ULN). The class given is in vivo, human. The source says: Clinical laboratory measurements of liver injury and function, the Upper Limit of Normal (ULN) values used are: 68 international units [IU]/L for ALT, 45 IU/L for aspartate aminotransferase (AST), 129 IU/L for alkaline phosphatase (ALP), 29 μmol/L for total bilirubin (TBL), and 59 IU/L for gamma-glutamyl transferase (GGT).
Drug induced liver injury (DILI) is when serum ALT exceeds 5×ULN.
In the above-outlined Phase 1 trial, abnormal liver chemistries were found for the subjects. This was unexpected as subjects were healthy adults receiving therapeutic equivalent doses of CBD used to treat Dravet Syndrome and Lennox-Gastaut Syndrome (1500 mg/day).
Measurements were performed at screening, on trial Days −1, 12, 18, 23, 27, and at follow-up.

Setting [2] is: healthy adults, CBD 1500 mg/day.
Setting [3] is: healthy adults, CBD 1500 mg/day, 16 participants, ALT ULN 68 IU/L.

The structures appear in SMILES notation.

`C=C(C)[C@@H]1CCC(C)=C[C@H]1c1c(O)cc(CCCCC)cc1O` [CBD, Cannabidiol]: the “trough plasma levels of CBD” value in data set [1] is recorded as “reached steady state”. Also, the “rate of abnormal liver chemistries in healthy volunteers” value in the data set on serum ALT (CBD at the doses used in this study) was 44%. In addition, in the data set on serum ALT (exposure to cannabidiol), the “exposure time at which all ALT elevations occurred” value is 2-4 weeks. In addition, in the data set with serum ALT (setting [2]), the “participants with peak ALT >5×ULN (international consensus criteria for DILI)” value is 5 (31%) participants and the “participants with peak serum ALT >2×ULN” value is on record as 6 (38%) participants. In addition, in the data set with serum ALT (setting [3]), the “participants with peak serum ALT ≥2 × ULN” value is reported as 6 (38%), the “participants with peak serum ALT ≥3 × ULN” value was 5 (31%), the “participants with peak serum ALT ≥5 × ULN” value was 5 (31%) and the “participants with peak serum ALT ≥10 × ULN” value is 0 (0). The “participants with peak serum ALT ≥20 × ULN” value with serum ALT (setting [3]) is 0 (0). In addition, in the data set on serum ALT (healthy adults, CBD up to 750 mg b.i.d. (1500 mg/day), 16 participants, ALT ULN 68 IU/L), the “participants with peak serum ALT >ULN” value is 7 (44%). Besides, in the data set with serum ALT (trial day), the “trial days between which all ALT elevations occurred” value fell in the range of 18 to 27 days.
